In patent publication US12600705B2, “Heat shock protein modulators and anti-Huntington disease therapeutic agents” (UNIVERSITY OF PITTSBURGH-OF THE COMMONWEALTH SYSTEM OF …, priority 2020, dated 2026):

How the values were obtained:
[1] = biological target: HDAC 4 human recombinant enzyme (Homo sapiens, UniProt P56524); test: HDAC 4 assay (BPS Bioscience kit); settings: Compound tested at 1 uM
Experimental: (§1) For HDAC 4-8 assays, kits from BPS Bioscience (https://bpsbioscience.com/) were used and their recommended protocols followed. […] Each compound was dissolved in DMSO to generate a 100 μM stock solution, then diluted using HPLC-grade water to prepare 10 μM, 2 μM, and 1 μM solutions. These solutions were used for the assays. […] Assays utilized a BioTek Synergy H1 microplate reader and black Nunc MicroWell 96-well optical-bottom plates with polymer base.
(§2) HDAC 4 (and, by analogy, HDAC 5, 6, 7, and 8): 40 μL of the parent solution was added to each well on the plate. The parent solution was prepared from a fluorogenic HDAC substrate, a 1 mg/mL solution of bovine serum albumin (BSA) in water, and HDAC assay buffer. 5 μL of the inhibitor buffer (10% DMSO in water) was added to the wells designated as “Blank” and “Positive Control” (no inhibitor). 5 μL of the test compound was added to each well designated as “Test Inhibitor”. Different concentrations of TSA (for a standard curve) was added to each well designated as “Standard.” 5 μL of HDAC assay buffer was added to the “Blank” wells. […] Afterwards, the plate was analyzed using a BioTek Synergy H1 microplate reader, taking two independent readings per well that were subsequently averaged.

HDAC 5 = HDAC 5 (Homo sapiens, UniProt Q9UQL6); test: HDAC 5 assay (BPS Bioscience kit)
Experimental: as §1, §2

[2] = tested on: HEK293 cells that express an HTT exon containing 17 glutamine repeats (HTT17Q-mCherry); test: Huntington's Disease (HD) model: protein aggregates (puncta) per cell in HEK293H cells transfected with HTT17Q-mCherry; settings: for Effect on aggregate suppression compared to the MAL1-271 positive control: Example 1, FIG. 2, 10 μM compound, 6 h; for Activity in cell based HD assay (active analogs of Hsp70 agonist): summary of Example 1
Experimental: Cells were stained for confocal microscope imaging with 4′,6-diamidino-2-phenylindole (DAPI), a fluorescent dye with high affinity to adenine-thymine rich DNA regions. A bright spot detection tool was used to identify and quantify the number of protein aggregates (“dots”) per cell.
Biological Assays: For HD assays, HEK293H cells were grown in DMEM (Sigma-Aldrich, Saint Louis, MO) supplemented with 10% fetal bovine serum (GE Healthcare Hyclone) and 1% penicillin/streptomycin (Thermo Fisher Scientific, Waltham, MA) at 37° C. and at a 5% CO2 atmosphere. Cells were seeded at 250,000 cells/plate in Poly-D-Lysine Coated 35 mm MatTek dishes (P35GC-1.5-10-C, MatTek Corporation, Ashland, MA). After 24 h growth, a total of 4 μg of mCherry tagged-polyglutamine-expanded (17-polyQ-expanded) huntingtin (HTT) was introduced using Lipofectamine 2000 (Invitrogen, Thermo Fisher Scientific) according to the manufacturer's instructions. […] The following day, cells were treated with vehicle (DMSO) as control or with 10 μM of the examined compounds for 6 h. The cells were then washed with PBS and fixed in 4% formaldehyde for 15 min at room temperature. Finally, cells were stained with DAPI (1:250 in PBS) for 4 h and maintained in PBS for confocal microscope imaging.
Complete volumes of cells were acquired at 0.5-μm steps, and volumes were reconstructed and analyzed using Nikon's NIS-Elements software (Nikon Instrument, Melville, NY). Bright spot detection tool was used to identify and quantify the number of protein aggregates (“dots”) per cell. A non-parametric Kruskal-Wallis test analysis was performed using Prism software (GraphPad, La Jolla, CA). Statistically significant differences between control (DMSO) and compound treated samples are indicated by asterisks in figure. To obtain representative images from this experiment, maximum intensity projections of 0.5-μm steps though the entire cell were generated using Nikon's NIS-Elements software.
Cells were stained for confocal microscope imaging with 4′,6-diamidino-2-phenylindole (DAPI) and bright spot detection tool was used to identify and quantify the number of protein aggregates (“dots”) per cell.

HDAC 8 = biological target: T1, HDAC 8 (Homo sapiens, UniProt Q9BY41); test: HDAC 8 assay (BPS Bioscience kit); settings: footnotes a,c: tested at 1 uM; 100 nM; average of 2 independent measurements
T1 sequence (Q9BY41 1-377): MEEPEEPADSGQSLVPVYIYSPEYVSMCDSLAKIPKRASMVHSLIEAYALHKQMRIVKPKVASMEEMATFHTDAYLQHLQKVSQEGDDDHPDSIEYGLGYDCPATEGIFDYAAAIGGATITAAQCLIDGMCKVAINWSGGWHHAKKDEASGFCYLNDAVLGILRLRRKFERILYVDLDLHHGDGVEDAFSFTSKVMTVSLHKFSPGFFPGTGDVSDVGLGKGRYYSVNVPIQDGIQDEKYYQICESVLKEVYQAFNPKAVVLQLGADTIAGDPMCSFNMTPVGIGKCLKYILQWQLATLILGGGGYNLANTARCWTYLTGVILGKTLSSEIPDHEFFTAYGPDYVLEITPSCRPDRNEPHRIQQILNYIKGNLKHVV
Experimental: as §1
(§3) HDAC 4 (and, by analogy, HDAC 5, 6, 7, and 8): 40 μL of the parent solution was added to each well on the plate. The parent solution was prepared from a fluorogenic HDAC substrate, a 1 mg/mL solution of bovine serum albumin (BSA) in water, and HDAC assay buffer. 5 μL of the inhibitor buffer (10% DMSO in water) was added to the wells designated as “Blank” and “Positive Control” (no inhibitor). 5 μL of the test compound was added to each well designated as “Test Inhibitor”. Different concentrations of TSA (for a standard curve) was added to each well designated as “Standard.” 5 μL of HDAC assay buffer was added to the “Blank” wells. Then, 5 μL of HDAC 4 human recombinant enzyme was added to the wells designated as “Positive Control”, “Test Inhibitor”, and “Standard.” The plate was then warmed in an incubator at 37° C. with a rocker platform for 30 min After the incubation, 50 μL of 2×HDAC Developer solution was added to each well. The plate was returned to the incubator and was shaken on the rocker for an additional 15 min. at room temperature. Afterwards, the plate was analyzed using a BioTek Synergy H1 microplate reader, taking two independent readings per well that were subsequently averaged.

HDAC 1-3 = HDAC 1-3 assay (BioVision kit, HeLa nuclear extract); settings: Compound tested at 1 uM
Experimental: For HDAC 1-3 assays, kits from BioVision Incorporated (https://www.biovision.com/) were used and their recommended protocols followed. […] Each compound was dissolved in DMSO to generate a 100 μM stock solution, then diluted using HPLC-grade water to prepare 10 μM, 2 μM, and 1 μM solutions. These solutions were used for the assays. […] Assays utilized a BioTek Synergy H1 microplate reader and black Nunc MicroWell 96-well optical-bottom plates with polymer base.
HDAC 1-3: 10 μL of each diluted compound (10 μM) and 40 μL of HPLC-grade water were mixed and added into a well on the plate. […] Then, 50 μL of the reaction mixture was added to each well and the solution was mixed thoroughly. The reaction mixture consisted of 500 μL of 10×HDAC Assay buffer, 100 μL of HeLa nuclear extract, 250 μL of HDAC substrate, and 1.65 mL of HPLC-grade water. The plate was then warmed in an incubator at 37° C. with a rocker platform and was incubated for 30 min. After the incubation, 10 μL of Lysine Developer solution was added to each well. The plate was kept in the incubator for an additional 30 min. Afterwards, the plate was analyzed using a BioTek Synergy H1 microplate reader, taking two independent readings per well that were subsequently averaged.

HDAC 6 = biological target: T2, HDAC 6 (Homo sapiens, UniProt Q9UBN7); test: HDAC 6 assay (BPS Bioscience kit); settings: footnotes b,c: tested at 200 nM; 100 nM; variable, average of 2 independent measurements
T2 sequence (Q9UBN7 1-1215): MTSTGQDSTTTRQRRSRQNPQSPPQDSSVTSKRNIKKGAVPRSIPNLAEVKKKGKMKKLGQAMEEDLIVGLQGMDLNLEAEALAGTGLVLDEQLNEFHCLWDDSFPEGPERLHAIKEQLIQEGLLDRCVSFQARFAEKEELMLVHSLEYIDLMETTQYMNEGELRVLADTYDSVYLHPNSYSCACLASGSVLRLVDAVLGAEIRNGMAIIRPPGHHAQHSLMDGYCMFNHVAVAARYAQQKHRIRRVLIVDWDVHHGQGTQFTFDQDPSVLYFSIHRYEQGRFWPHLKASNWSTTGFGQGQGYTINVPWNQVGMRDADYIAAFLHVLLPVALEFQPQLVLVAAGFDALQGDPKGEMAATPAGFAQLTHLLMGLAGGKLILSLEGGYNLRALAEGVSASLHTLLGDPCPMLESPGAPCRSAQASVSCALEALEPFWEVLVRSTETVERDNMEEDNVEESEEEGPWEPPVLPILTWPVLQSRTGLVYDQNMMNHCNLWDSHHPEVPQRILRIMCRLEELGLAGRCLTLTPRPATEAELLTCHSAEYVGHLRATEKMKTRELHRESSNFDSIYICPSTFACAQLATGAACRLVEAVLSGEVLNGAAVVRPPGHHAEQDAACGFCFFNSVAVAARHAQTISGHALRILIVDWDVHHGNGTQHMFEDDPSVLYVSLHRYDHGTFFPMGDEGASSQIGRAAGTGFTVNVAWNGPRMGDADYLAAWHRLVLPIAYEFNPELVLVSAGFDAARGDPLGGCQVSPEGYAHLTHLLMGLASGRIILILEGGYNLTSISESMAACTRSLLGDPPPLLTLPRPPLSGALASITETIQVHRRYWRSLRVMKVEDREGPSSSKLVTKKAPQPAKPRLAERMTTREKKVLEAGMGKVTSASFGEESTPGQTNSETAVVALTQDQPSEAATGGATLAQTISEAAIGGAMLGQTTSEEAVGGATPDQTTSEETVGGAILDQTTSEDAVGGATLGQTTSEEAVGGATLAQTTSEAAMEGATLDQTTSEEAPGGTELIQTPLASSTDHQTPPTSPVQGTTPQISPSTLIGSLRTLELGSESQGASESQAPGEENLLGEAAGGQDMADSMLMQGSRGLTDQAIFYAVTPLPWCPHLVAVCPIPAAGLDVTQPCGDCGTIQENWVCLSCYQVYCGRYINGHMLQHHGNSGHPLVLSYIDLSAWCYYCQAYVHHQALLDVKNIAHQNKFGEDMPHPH
Experimental: as §1, §3

HDAC 7 = biological target: T3, HDAC 7 (Homo sapiens, UniProt Q8WUI4); test: HDAC 7 assay (BPS Bioscience kit)
T3 sequence (Q8WUI4 1-952): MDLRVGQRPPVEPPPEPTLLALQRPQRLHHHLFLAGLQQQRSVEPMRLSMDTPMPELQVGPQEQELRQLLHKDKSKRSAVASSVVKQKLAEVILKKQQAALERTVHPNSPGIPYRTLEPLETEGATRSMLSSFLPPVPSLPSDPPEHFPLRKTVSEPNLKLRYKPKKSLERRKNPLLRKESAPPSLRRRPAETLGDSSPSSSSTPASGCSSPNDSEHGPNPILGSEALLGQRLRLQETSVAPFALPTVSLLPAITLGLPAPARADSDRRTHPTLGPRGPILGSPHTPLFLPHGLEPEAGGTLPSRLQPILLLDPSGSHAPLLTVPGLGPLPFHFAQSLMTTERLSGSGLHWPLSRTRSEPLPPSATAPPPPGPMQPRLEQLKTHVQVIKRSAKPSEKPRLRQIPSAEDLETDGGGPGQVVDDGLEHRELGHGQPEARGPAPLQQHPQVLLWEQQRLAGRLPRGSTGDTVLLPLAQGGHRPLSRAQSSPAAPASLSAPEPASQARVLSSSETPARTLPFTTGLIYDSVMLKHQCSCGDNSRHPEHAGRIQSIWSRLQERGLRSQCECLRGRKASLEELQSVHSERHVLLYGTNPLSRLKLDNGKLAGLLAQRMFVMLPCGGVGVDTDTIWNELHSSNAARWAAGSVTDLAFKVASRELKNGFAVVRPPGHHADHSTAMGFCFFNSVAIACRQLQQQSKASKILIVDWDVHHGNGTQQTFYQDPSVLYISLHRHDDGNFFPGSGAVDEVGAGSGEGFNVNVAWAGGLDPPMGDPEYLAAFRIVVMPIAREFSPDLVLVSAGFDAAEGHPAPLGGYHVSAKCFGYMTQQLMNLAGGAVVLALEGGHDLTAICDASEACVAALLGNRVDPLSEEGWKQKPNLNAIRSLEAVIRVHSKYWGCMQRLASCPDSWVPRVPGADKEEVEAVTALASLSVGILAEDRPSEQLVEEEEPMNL
Experimental: as §1, §2

Sequence of HDAC 4 human recombinant enzyme (P56524 whole entry): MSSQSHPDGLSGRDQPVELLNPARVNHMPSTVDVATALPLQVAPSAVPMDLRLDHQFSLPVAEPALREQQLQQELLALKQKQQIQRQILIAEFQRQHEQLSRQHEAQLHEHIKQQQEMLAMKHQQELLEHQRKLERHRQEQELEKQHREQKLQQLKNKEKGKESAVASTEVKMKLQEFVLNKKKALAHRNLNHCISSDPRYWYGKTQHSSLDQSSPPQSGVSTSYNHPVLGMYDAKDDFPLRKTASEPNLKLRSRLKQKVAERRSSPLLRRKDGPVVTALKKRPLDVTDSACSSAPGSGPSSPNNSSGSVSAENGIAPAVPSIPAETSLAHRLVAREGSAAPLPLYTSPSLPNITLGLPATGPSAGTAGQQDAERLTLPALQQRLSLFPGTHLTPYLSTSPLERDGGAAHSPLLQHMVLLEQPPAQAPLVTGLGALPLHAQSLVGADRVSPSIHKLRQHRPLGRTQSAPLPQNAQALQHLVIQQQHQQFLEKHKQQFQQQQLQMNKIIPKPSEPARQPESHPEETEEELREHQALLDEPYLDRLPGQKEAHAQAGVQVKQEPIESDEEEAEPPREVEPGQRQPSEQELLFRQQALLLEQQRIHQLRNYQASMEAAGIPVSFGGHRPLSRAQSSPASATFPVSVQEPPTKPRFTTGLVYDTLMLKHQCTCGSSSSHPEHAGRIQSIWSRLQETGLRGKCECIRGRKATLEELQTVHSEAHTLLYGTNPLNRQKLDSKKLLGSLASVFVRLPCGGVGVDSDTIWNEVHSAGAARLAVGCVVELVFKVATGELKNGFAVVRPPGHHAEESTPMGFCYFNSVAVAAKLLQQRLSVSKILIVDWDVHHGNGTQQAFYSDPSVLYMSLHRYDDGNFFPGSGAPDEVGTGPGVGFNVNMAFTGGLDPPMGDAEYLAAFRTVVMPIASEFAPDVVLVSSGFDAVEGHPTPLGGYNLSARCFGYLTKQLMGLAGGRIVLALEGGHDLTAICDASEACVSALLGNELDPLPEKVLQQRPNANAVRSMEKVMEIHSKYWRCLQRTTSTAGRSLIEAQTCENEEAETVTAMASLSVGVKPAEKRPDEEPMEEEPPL
Sequence of HDAC 5 (Q9UQL6 whole entry): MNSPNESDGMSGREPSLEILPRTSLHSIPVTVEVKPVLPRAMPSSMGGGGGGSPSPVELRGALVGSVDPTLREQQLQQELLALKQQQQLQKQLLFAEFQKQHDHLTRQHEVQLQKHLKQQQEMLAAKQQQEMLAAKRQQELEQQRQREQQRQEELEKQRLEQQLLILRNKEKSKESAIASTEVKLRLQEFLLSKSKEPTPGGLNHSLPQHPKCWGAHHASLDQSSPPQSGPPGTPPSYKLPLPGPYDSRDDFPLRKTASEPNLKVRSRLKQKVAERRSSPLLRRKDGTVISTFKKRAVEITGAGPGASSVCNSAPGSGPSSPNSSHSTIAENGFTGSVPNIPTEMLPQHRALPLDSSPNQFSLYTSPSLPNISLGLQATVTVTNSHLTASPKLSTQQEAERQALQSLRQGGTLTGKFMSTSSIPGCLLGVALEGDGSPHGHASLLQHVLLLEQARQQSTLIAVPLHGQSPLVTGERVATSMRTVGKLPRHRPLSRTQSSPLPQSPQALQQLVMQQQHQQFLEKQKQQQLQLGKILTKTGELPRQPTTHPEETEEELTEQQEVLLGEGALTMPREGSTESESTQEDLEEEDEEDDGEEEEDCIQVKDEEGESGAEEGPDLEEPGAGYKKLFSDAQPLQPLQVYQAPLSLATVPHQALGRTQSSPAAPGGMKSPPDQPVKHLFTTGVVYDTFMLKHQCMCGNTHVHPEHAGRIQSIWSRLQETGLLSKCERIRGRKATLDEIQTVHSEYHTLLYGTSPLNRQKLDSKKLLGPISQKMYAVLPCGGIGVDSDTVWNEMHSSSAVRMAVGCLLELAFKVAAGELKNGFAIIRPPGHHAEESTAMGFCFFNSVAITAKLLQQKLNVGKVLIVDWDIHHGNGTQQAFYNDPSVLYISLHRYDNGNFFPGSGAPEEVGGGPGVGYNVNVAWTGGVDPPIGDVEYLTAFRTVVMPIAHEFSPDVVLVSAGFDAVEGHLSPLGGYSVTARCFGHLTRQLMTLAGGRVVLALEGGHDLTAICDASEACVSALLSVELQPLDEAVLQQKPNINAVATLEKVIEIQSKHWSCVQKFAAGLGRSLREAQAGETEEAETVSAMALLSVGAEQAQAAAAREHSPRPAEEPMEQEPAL

Row | Compound | Percent inhibition HDAC 4 [1] | Percent inhibition HDAC 5 (HDAC 5; Compound tested at 200 nM) | Effect on aggregate suppression compared to the MAL1-271 positive control [2] | Activity in cell based HD assay (active analogs of Hsp70 agonist) [2] | Percent inhibition HDAC 8 (HDAC 8) [%^e] | Percent inhibition HDAC 1-3 (HDAC 1-3) | Percent inhibition HDAC 6 (HDAC 6) | inhibition at 0.1 µM (HDAC 7; read-out: Percent inhibition HDAC 7) [%] | inhibition at 0.2 µM (HDAC 5; read-out: Percent inhibition HDAC 5) [%] | Percent inhibition HDAC 7 (HDAC 7; Compound tested at 100 nM)
1 | COC(=O)CCCN1C=C(C(=O)O)C(c2ccc(Cl)cc2Cl)NS1(=O)=O (stereo not shown) [Compound 10g, 3-(2,4-Dichlorophenyl)-6-(4-methoxy-4-oxobutyl)-3,6-dihydro-2H-1,2,6-thiadiazine-4-carboxylic acid 1,1-dioxide] | NIA | NIA | equally effective | active | 60 | NIA | NIA | 1 |  | 
2 | CCOC(=O)C1=CNS(=O)(=O)N(Cc2ccc(C(=O)O)cc2)C1c1ccc(Cl)cc1Cl (stereo not shown) [Compound 10i, 4-((3-(2,4-Dichlorophenyl)-4-(ethoxycarbonyl)-1,1-dioxido-3,6-dihydro-2H-1,2,6-thiadiazin-2-yl)methyl)benzoic acid] | NIA |  | equally effective | active | 37 | NIA | 40%^d |  | 9 | NIA
